Results: US8143398B1, “Activity of new N-acylated ciprofloxacin derivatives against faculative intracellular bacteria” (University of South Florida, priority 2010, dated 2012)

Assays:
[1] = system: intracellular Bartonella henselae Houston-1; experiment: Assay for intracellular activity in infected HMEC-1 cells; type: cell-based
Method: HMEC-1 cells were maintained in MCDB131 medium supplemented with 10% FBS, 5% L-glutamine, 10 ng/mL epidermal growth factor, 1 μg/mL hydrocortisone, penicillin/streptomycin and amphotericin B. HMEC-1 cells were infected with Bartonella henselae Houston-1 at a multiplicity of infection (MOI) of 100 for 4 hour in medium without ciprofloxacin-derived compounds. After infection, the cells were washed 2× with PBS and then treated with gentamicin (200 μg/mL) for 1 hour. Infected cells were washed as before and medium containing ciprofloxacin-derived compound was added at concentrations of 0.1 μg/mL, 1.0 μg/mL and 10 μg/mL. Infected cells were then incubated for 24, 48 and 96 hour. Ciprofloxacin-derived compounds were then removed, and the infected cells were washed as before and lysed with 0.1% saponin Lysates were plated on chocolate agar. After incubation for 8 days, CFU's were counted to determine the number of viable intracellular bacteria.

Bartonella strains = experiment: Agar dilution testing (MIC); type: cell-based; conditions: growth read after 1 week
Method: Agar was prepared with the N-acyl ciprofloxacin-derived compounds at concentrations of 10 μg/mL, 1.0 μg/mL and 0.1 μg/mL. An equivalent volume of DMSO was added to a control plate. Nine strains of Bartonella were harvested from 4-day-old plates, resuspended in 1.0 mL sterile HIB and adjusted to a McFarland 2.0 turbidity standard. Using a specific template, 12.5 μL of broth suspensions of each Bartonella strain was pipetted onto each of the fluoroquinalone compound-containing chocolate agar plates and the DMSO control plate. After 1 week, the growth of each Bartonella strain was examined and recorded.

| Compound | activity against intracellular bacteria [1] | MIC (minimal inhibitory concentration) (Bartonella strains) | decrease in CFUs (intracellular colony forming units) ([1]; infected HMEC cells treated with 1.0 μg/mL for 24 hours) |
| --- | --- | --- | --- |
| CCC(C)(C)C(=O)N1CCN(c2cc3c(cc2F)c(=O)c(C(=O)O)cn3C2CC2)CC1 [RC4-143] | significant activity against intracellular bacteria | 0.1 to 0.5 µg/mL |  |
| CC(=O)N1CCN(c2cc3c(cc2F)c(=O)c(C(=O)O)cn3C2CC2)CC1 [RC4-125] | significant activity against intracellular bacteria | 1.0 to 10.0 µg/mL |  |
| CC(C)(C)C(=O)N1CCN(c2cc3c(cc2F)c(=O)c(C(=O)O)cn3C2CC2)CC1 [RC5-32] | significant activity against intracellular bacteria |  |  |
| CCCC(=O)N1CCN(c2cc3c(cc2F)c(=O)c(C(=O)O)cn3C2CC2)CC1 [RC5-29] | significant activity against intracellular bacteria |  |  |
| CC(=O)N1CCN(c2cc3c(cc2F)c(=O)c(C(=O)N2CCN(c4cc5c(cc4F)c(=O)c(C(=O)O)cn5C4CC4)CC2)cn3C2CC2)CC1 [RC5-69] | significant activity against intracellular bacteria |  |  |
| CCC(=O)N1CCN(c2cc3c(cc2F)c(=O)c(C(=O)O)cn3C2CC2)CC1 [RC4-147] | significant activity against intracellular bacteria |  | greater than a tenfold decrease |
